In PubChem BioAssay (NCI):
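Growth conditions: 96-well plates. Treatment: test compound, 48 hours, 5 concentrations. Analysis: linear interpolation between bracketing concentrations; unreached endpoints set to highest concentration. The concentration for full growth arrest is given as TGI.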

Assays:
Assay in all cases: inhibition of tumour cell growth, NCI panel, 48 h
[1] = tested on: SF-539 CNS
[2] = tested on: XF 498 CNS
[3] = tested on: SNB-19 CNS
[4] = tested on: MOLT-4 leukemia
[5] = tested on: COLO 205 colon
[6] = tested on: SNB-75 CNS
[7] = tested on: KM12 colon
[8] = tested on: UACC-62 melanoma
[9] = tested on: A498 renal
[10] = tested on: CAKI-1 renal
[11] = tested on: OVCAR-8 ovarian
[12] = tested on: HT29 colon
[13] = tested on: SK-MEL-28 melanoma
[14] = tested on: NCI-H23 lung
[15] = tested on: A549 NSCLC
[16] = tested on: SK-OV-3 ovarian
[17] = tested on: DLD-1 colon
[18] = tested on: M19-MEL melanoma
[19] = tested on: DMS 273 small cell lung
[20] = tested on: SW-620 colon
[21] = tested on: SNB-78 CNS
[22] = tested on: SR leukemia
[23] = tested on: SF-268 CNS
[24] = tested on: K-562 leukemia
[25] = tested on: U251 CNS
[26] = tested on: DMS 114 small cell lung
[27] = tested on: UACC-257 melanoma
[28] = tested on: HCT-116 colon
[29] = tested on: SF-295 CNS
[30] = tested on: M14 melanoma
[31] = tested on: SK-MEL-2 melanoma
[32] = tested on: OVCAR-4 ovarian
[33] = tested on: HL-60(TB) leukemia
[34] = tested on: LOX IMVI melanoma
[35] = tested on: IGROV1 ovarian
[36] = tested on: KM20L2 colon
[37] = tested on: RPMI-8226 leukemia
[38] = tested on: NCI-H226 lung
[39] = tested on: CCRF-CEM leukemia
[40] = tested on: TK-10 renal
[41] = tested on: OVCAR-5 ovarian
[42] = tested on: UO-31 renal
[43] = tested on: HCT-15 colon
[44] = tested on: EKVX NSCLC
[45] = tested on: NCI-H522 lung
[46] = tested on: NCI-H460 lung
[47] = tested on: SK-MEL-5 melanoma
[48] = tested on: HOP-62 NSCLC
[49] = tested on: LXFL 529 NSCLC
[50] = tested on: HCC-2998 colon
[51] = tested on: SN12C renal
[52] = tested on: RXF 393 renal
[53] = tested on: HOP-92 NSCLC
[54] = tested on: ACHN renal

Question: Which results are given for `O=C(Nc1ccc(Cl)c(Cl)c1)C(=O)C(C(=O)c1ccccc1F)C1OC(=O)c2ccccc21` (centres undefined)?
Answer: TGI [1]: 28.1 µM; TGI [2]: 79.5 µM; TGI [3]: 47.8 µM; TGI [4]: > 100 µM; TGI [5]: 33.1 µM; TGI [6]: 58.8 µM; TGI [7]: 37 µM; TGI [8]: 28.3 µM; TGI [9]: > 100 µM; TGI [10]: 80.2 µM; TGI [11]: 28.5 µM; TGI [12]: 88.8 µM; TGI [13]: 75.2 µM; TGI [14]: 75.9 µM; TGI [15]: 81.4 µM; TGI [16]: 69.9 µM; TGI [17]: > 100 µM; TGI [18]: 41.7 µM; TGI [19]: 46.9 µM; TGI [20]: 62.3 µM; TGI [21]: 73.1 µM; TGI [22]: > 100 µM; TGI [23]: 92.1 µM; TGI [24]: > 100 µM; TGI [25]: 28.1 µM; TGI [26]: 46.4 µM; TGI [27]: > 100 µM; TGI [28]: 30.4 µM; TGI [29]: > 100 µM; TGI [30]: 34.3 µM; TGI [31]: 38.2 µM; TGI [32]: > 100 µM; TGI [33]: 41.2 µM; TGI [34]: 50.4 µM; TGI [35]: > 100 µM; TGI [36]: 55.1 µM; TGI [37]: 55.9 µM; TGI [38]: 43.7 µM; TGI [39]: 50.9 µM; TGI [40]: 93.8 µM; TGI [41]: > 100 µM; TGI [42]: 37.2 µM; TGI [43]: 35.5 µM; TGI [44]: 68.6 µM; TGI [45]: 27.3 µM; TGI [46]: 43.8 µM; TGI [47]: 35.9 µM; TGI [48]: 76.2 µM; TGI [49]: > 100 µM; TGI [50]: 32.7 µM; TGI [51]: 60.2 µM; TGI [52]: 41.8 µM; TGI [53]: > 100 µM; TGI [54]: > 100 µM
